These results are taken from the supplement of paper PMC8837787.

The experiment has as its system Saccharomyces cerevisiae ABC16-Green Monster. As to the kind of experiment: growth inhibition at single dose (up to 150 µM), below the 70% cut-off for dose-response; higher = more potent. The following applies: 18 h; 30 °C; YPD. The essentials:
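Values are percent growth inhibition of drug-sensitive S. cerevisiae ABC16-Green Monster cells. Cells grown overnight in YPD at 30 °C were diluted to log phase (OD600 0.1–0.2), and each library compound was added at a single dose of 150 µM to 200 µl culture per well in 96-well plates, in biological duplicates, beside untreated cultures. OD600 was read at 0 h and after 18 h at 30 °C, and compounds under 70% in both replicates were not taken to dose-response.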

Consider `CNc1snc(C)c1C(=O)OCCOc1ccccc1C(C)=O`, for which the “growth inhibition at single dose” value was below 70%.

Turning to `CCCCOC(=O)Nc1cc2nc(C3CCCCC3)[nH]c2cc1N1CCCC1`, the “growth inhibition at single dose” value was below 70%.

Take `N#Cc1ccc(-c2ccc(OCC(N)=O)cc2)cc1`: the “growth inhibition at single dose” value is below 70%.

Regarding `Cc1cc(NC(=O)c2ccc(S(=O)(=O)N(Cc3ccccc3)C(C)C)cc2)no1`, the “growth inhibition at single dose” value was below 70%.

Regarding `FC(F)(F)c1cc(NCCc2ccccc2)nc(-c2ccccn2)n1`, the “growth inhibition at single dose” value was below 70%.

Turning to `CCn1c(O)c(C2NCCc3c2[nH]c2ccc(OC)cc32)c(=O)[nH]c1=O` (stereo not drawn), the “growth inhibition at single dose” value was below 70%.

Regarding `Oc1ccc(Br)cc1CN1CCN(Cc2cccc(F)c2)CC1`, the “growth inhibition at single dose” value was below 70%.

Turning to `Cc1cc(C)n2nc(C(=O)Nc3cc(C(F)(F)F)ccc3N3CCOCC3)nc2n1`, the “growth inhibition at single dose” value was below 70%.

As to `NCCCC(N)(C(=O)O)C(F)F` (stereo not drawn), the “growth inhibition at single dose” value was below 70%.

Take `COc1ccc(-n2nc(C)c3c2NC(=O)CC3c2ccc3c(c2)OCO3)cc1` (stereo not drawn): the “growth inhibition at single dose” value is below 70%.

For the compound `CC(=O)N1CCc2cc3nc(C)cc(C)c3cc21`, the “growth inhibition at single dose” value was below 70%.

`COc1cc(-c2nc(-c3ccccc3)c(-c3ccccc3)[nH]2)cc(OC)c1O`: the “growth inhibition at single dose” value was below 70%.

Consider `CC(C)C(Oc1cccc2ccccc12)C(=O)O` (stereo not drawn), for which the “growth inhibition at single dose” value is below 70%.

With `Cc1ccc(/C(C#N)=C/c2ccc(N(C)C)cc2)cc1`, the “growth inhibition at single dose” value was below 70%.

Turning to `Cc1nccnc1-c1ccnn1C(=O)Nc1cc(Cl)cc(Cl)c1`, the “growth inhibition at single dose” value is below 70%.

Consider `COc1ccccc1CNC(=O)c1cc(C2CC2)nc2c1cnn2C(C)C`, for which the “growth inhibition at single dose” value was below 70%.

In the case of `CCOc1ccc2nc(C)cc(Nc3ccc(Br)cc3)c2c1`, the “growth inhibition at single dose” value was below 70%.

Take `NC(=O)c1ccsc1NC(=O)CSc1ncc(-c2ccccc2)n1-c1ccccc1`: the “growth inhibition at single dose” value was below 70%.

As to `O=c1cc(-c2ccccc2)[nH]c2ccccc12`, the “growth inhibition at single dose” value was below 70%.

Take `Cc1ccn2cc(C(=O)Nc3nnc(CC(C)C)s3)nc2c1`: the “growth inhibition at single dose” value is below 70%.

For the compound `CCc1c(C(=O)Nc2ccn(CCc3ccccn3)n2)cnn1C(C)(C)C`, the “growth inhibition at single dose” value was below 70%.

Regarding `Cc1cc(Nc2ccc(Cl)cc2)n2nc(C(F)(F)F)nc2n1`, the “growth inhibition at single dose” value is below 70%.

Take `COc1cc(C(F)(F)F)nc2ccc(C)c(N)c12`: the “growth inhibition at single dose” value is below 70%.

Regarding `Cc1cc(C)n(-c2nc(-c3ccccc3)cc(N(C)CCO)n2)n1`, the “growth inhibition at single dose” value is below 70%.

Regarding `Cc1ccc2nc(Cl)c(CNCc3cccs3)cc2c1`, the “growth inhibition at single dose” value is below 70%.

For the compound `O=C(NCCN1CCCC1)c1cc(NCCN2CCOCC2)nc2ccc(Cl)cc12`, the “growth inhibition at single dose” value was below 70%.

Take `Cc1cc(=O)n2nc(-c3ccc(C(C)(C)C)cc3)cc2[nH]1`: the “growth inhibition at single dose” value is below 70%.

With `CC(=O)c1c(C)[nH]c(C(=O)OCCOc2ccccc2)c1C`, the “growth inhibition at single dose” value was below 70%.

Regarding `Nn1c(SCC(=O)c2c[nH]c3ccccc23)nnc1C(F)(F)F`, the “growth inhibition at single dose” value was below 70%.

For the compound `Cc1ccc(Cn2c(N3CCC(C(=O)NCc4cccs4)CC3)nc3ccccc32)cc1`, the “growth inhibition at single dose” value is below 70%.

Take `c1ccc(Oc2ccc(-c3cc(N4CCOCC4)[nH]n3)cc2)cc1`: the “growth inhibition at single dose” value is below 70%.

Take `Cc1cc(N)c(N)cc1C`: the “growth inhibition at single dose” value was below 70%.

With `COc1ccc(-n2ccnc2SCC(=O)Nc2cc(C)ccc2C)c(OC)c1`, the “growth inhibition at single dose” value is below 70%.

For the compound `COc1ccc2nc(N)nc(C)c2c1`, the “growth inhibition at single dose” value was below 70%.

Take `CN(C)CC(C)(C)CNc1nn2cc(-c3ccccc3)nc2s1`: the “growth inhibition at single dose” value was below 70%.

Regarding `Clc1ccc2[nH]c3c(NCCCN4CCOCC4)ncnc3c2c1`, the “growth inhibition at single dose” value was below 70%.

As for `Cc1cnc(NC(=O)c2ccc(C3SCCS3)cc2)s1`, the “growth inhibition at single dose” value was below 70%.

For the compound `O=C(Nc1ccc(I)cc1)C1CCN(C(=O)c2ccncc2)CC1`, the “growth inhibition at single dose” value was below 70%.

As to `c1ccc(C2=Nc3ccccc3N=C(c3ccccc3)c3ccccc32)cc1`, the “growth inhibition at single dose” value was below 70%.

Take `Cc1[nH]c2cc(F)cc(F)c2c(=O)c1-c1ccc(Oc2ccc(OC(F)(F)F)cc2)cc1`: the “growth inhibition at single dose” value is below 70%.

On to `NCC(=O)N1CCn2c(nc(-c3ccccc3)c2Nc2ccc3c(c2)OCO3)C1`, for which the “growth inhibition at single dose” value is below 70%.

As to `CC1CC(C)CN(C(=O)c2ccc(Cl)cc2Cl)C1` (stereo not drawn), the “growth inhibition at single dose” value was below 70%.

On to `COc1ccc(C2=C(c3ccc(OC)cc3)C3(c4ccccc4)C(=O)C2(c2ccccc2)C2C(=O)N(c4ccc(C)cc4)C(=O)C23)cc1` (stereo not drawn), for which the “growth inhibition at single dose” value was below 70%.

With `Cc1cc(Nc2ccc3ccccc3c2)n2ncnc2n1`, the “growth inhibition at single dose” value was below 70%.

`COc1ccc(S(=O)(=O)Nc2ccc(CN3CCN(C(=O)c4cccc(C#N)c4)CC3)cc2)cc1`: the “growth inhibition at single dose” value was below 70%.

As for `Cc1ccc(C)c(-c2csc(Nc3ccc(C)c(C)c3)n2)c1`, the “growth inhibition at single dose” value is below 70%.

As to `COc1ccc(C2=NN(C3CCCCCC3)C(=O)[C@@H]3CC=CC[C@H]23)cc1OCCCCOc1ccc(-c2nn[nH]n2)cc1`, the “growth inhibition at single dose” value is below 70%.

As to `CCCCn1c(N)c(N(C)CC(=O)Nc2scc(-c3ccccc3)c2C(=O)OCC)c(=O)[nH]c1=O`, the “growth inhibition at single dose” value was below 70%.

Consider `Cc1ccccc1OCCSc1nc2ccc(NC(=O)c3ccccc3)cc2s1`, for which the “growth inhibition at single dose” value is below 70%.

For the compound `CC(=O)Nc1cccc(Oc2ccc(C(=O)Nc3ccc4ccccc4c3)cc2[N+](=O)[O-])c1`, the “growth inhibition at single dose” value was below 70%.

With `CCOC(=O)c1cnc2ccc(OC)cc2c1NCc1ccccc1`, the “growth inhibition at single dose” value is below 70%.

Turning to `COc1cccc(NC(=O)[C@H](C(C)C)n2c(=O)[nH]c3ccccc3c2=O)c1`, the “growth inhibition at single dose” value is below 70%.

With `CC(C)N=c1cc2n(-c3ccc(Cl)cc3)c3ccccc3nc-2cc1Nc1ccc(Cl)cc1`, the “growth inhibition at single dose” value was below 70%.

For `CCOc1cc2c(cc1CNC(=O)c1cnc3cc(C)nn3c1C)OC(C)C2` (stereo not drawn), the “growth inhibition at single dose” value is below 70%.

Take `NC(=O)c1cc(NC(=O)c2cccs2)ccc1N1CCCCC1`: the “growth inhibition at single dose” value is below 70%.

As for `CCOC(=O)c1cn(CC)c2cc(N(C)CCc3ccc(OC)c(OC)c3)c(F)cc2c1=O`, the “growth inhibition at single dose” value was below 70%.

`O=C(NCc1ccccc1)/C(=C/c1ccc(OCc2ccccc2)cc1)c1nc2ccccc2[nH]1`: the “growth inhibition at single dose” value is below 70%.

In the case of `CCN(CC)S(=O)(=O)c1ccc(-c2csc(Nc3ccc(C)c(C)c3)n2)cc1`, the “growth inhibition at single dose” value is below 70%.

For `Oc1c2c(nc3cc(-c4ccccc4)nn13)CCCC2`, the “growth inhibition at single dose” value was below 70%.

Turning to `O=C(NC1CCN(Cc2ccccc2)CC1)c1cc(-c2ccncc2)nc2ccc(Cl)cc12`, the “growth inhibition at single dose” value was below 70%.

In the case of `COc1cccc(Cn2c(Oc3ccccc3)nc3c2c(=O)n(C)c(=O)n3C)c1`, the “growth inhibition at single dose” value was below 70%.

Consider `CC(C)(C)CN1C(=O)C(c2ccccc2)(c2ccccc2)N=C1N`, for which the “growth inhibition at single dose” value is below 70%.

As for `COc1ccc(CN2CCOc3ccc(C(C)(O)CN(C)C)cc3C2)cc1C` (stereo not drawn), the “growth inhibition at single dose” value is below 70%.
